Measured values taken from patent US6770597B2, “Benzohydrazide derivatives as herbicides and desiccant compositions containing them” (Ishihara Sangyo Kaisha, Ltd., priority 2002, dated 2004).

What was measured:
Type in all cases: in vivo
[1] = tested on: sicklepod (Cassia obtusifolia, CASOB); test: Greenhouse herbicide screen, post-emerge application, phytotoxicity rating; conditions: POST emergent, 14 days after application, scale 0-100
Summary of the method: (§1)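 Crop and weed responses were judged visually on a 0–100 scale two weeks post-treatment. Treatments: acetone solutions, 15–1000 g ai/ha, sprayed at 187 l/ha onto pre-emerge soil or 2–3-leaf plants.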

[2] = tested on: cocklebur (Xanthium strumarium, XANST); test: as above; conditions: POST emergent, 14 days after application, scale 0-100
Summary of the method: as §1

[3] = tested on: lambsquarters (Chenopodium album, CHEAL); test: as above; conditions: POST emergent, 14 days after application, scale 0-100
Summary of the method: as §1

[4] = tested on: velvetleaf (Abutilon theophrasti, ABUTH); test: as above; conditions: POST emergent, 14 days after application, scale 0-100
Summary of the method: as §1

[5] = tested on: green foxtail (Setaria viridis, SETVI); test: as above; conditions: POST emergent, 14 days after application, scale 0-100
Summary of the method: as §1

[6] = tested on: barnyardgrass (Echinochloa crus-galli, ECHCG); test: as above; conditions: POST emergent, 14 days after application, scale 0-100
Summary of the method: as §1

[7] = tested on: redroot pigweed (Amaranthus retrofiexus, AMARE); test: as above; conditions: POST emergent, 14 days after application
Summary of the method: as §1

[8] = tested on: johnsongrass (Sorghum halepense, SORHA); test: as above; conditions: POST emergent, 14 days after application, scale 0-100
Summary of the method: as §1

[9] = tested on: large crabgrass (Digitaria sanguinalis, DIGSA); test: as above; conditions: POST emergent, 14 days after application, scale 0-100
Summary of the method: as §1

[10] = tested on: common ragweed (Ambrosia artemisiifolia L., AMBEL); test: as above; conditions: POST emergent, 14 days after application, scale 0-100
Summary of the method: as §1

[11] = tested on: ivyleaf morningglory (Ipomoea hederacea, IPOHE); test: as above; conditions: POST emergent, 14 days after application, scale 0-100
Summary of the method: as §1

[12] = tested on: field corn (Zea mays L., var. Dekalb 535, CORN); test: Greenhouse herbicide screen, pre-emerge application, crop damage rating; conditions: PRE emergent, 14 days after application, rating scale 0-100
Text: (§2) A standard greenhouse herbicide activity screening system was used to evaluate the herbicidal efficacy and crop safety of these test compounds. Seven broadleaf weed species including redroot pigweed (Amaranthus retrofiexus, AMARE), velvetleaf (Abutilon theophrasti, ABUTH), sicklepod (Cassia obtusifolia, CASOB), ivyleaf morningglory (Ipomoea hederacea, IPOHE), lambsquarters (Chenopodium album, CHEAL), common ragweed (Ambrosia artemisiifolia L., AMBEL), and cocklebur (Xanthium strumarium, XANST) were used as test species. Four grass weed species including green foxtail (Setaria viridis, SETVI), barnyardgrass (Echinochloa crus-galli, ECHCG), johnsongrass (Sorghum halepense, SORHA), and large crabgrass (Digitaria sanguinalis, DIGSA) were also used. In addition, four crop species, field corn (Zea mays L., var. Dekalb 535, CORN), soybean (Glycine max L., var. Pella 86, SOY), upland rice (Oryza sp., var.Cocodrie, RICE) and wheat (Triticum aestivum L.) were included.
(§3) All plants were grown in 10 cm square plastic pots which were filled with a sandy loam soil mix. For pre-emerge tests, seeds were planted one day prior to application of the test compounds. For post-emerge tests, seeds were planted 8-21 days prior to the test to allow emergence and good foliage development prior to application of the test substances. At the time of the post-emerge application, plants of all species were usually at the 2-3 leaf stage of development.
(§4) All test compounds were dissolved in acetone and applied to the test units in a volume of 187 l/ha. Test materials were applied at rates ranging from 15 g ai/ha to 1000 g ai/ha using a track sprayer equipped with a TJ8001E even flow flat fan spray nozzle. Plants were arranged on a shelf so that the top of the canopy (post-emerge) or top of the soil surface (pre-emerge) was 40-45 cm below the nozzle. Pressurized air was used to force the test solution through the nozzle as it was mechanically advanced (via electrically driven chain drive) over the top of all test plants/pots. This application simulates a typical commercial field herbicide application.
(§5) Pre-emergence tests were top watered immediately after treatment to incorporate the test materials, then routinely top-watered for normal growth. Post-emerge test units were always bottom-watered.
(§6) At 14 days after application of the test materials, phytotoxicity ratings were recorded. A rating scale of 0-100 was used as previously described in Research Methods in Weed Science, 2nd edition, B. Truelove, Ed., Southern Weed Science Society, Auburn University, Auburn, Ala., 1977. Briefly, “0” corresponds to no damage and “100” corresponds to complete death of all plants in the test unit. This scale was used both to determine efficacy against weed species and damage to crop species. Herbicide activity data for various compounds of this invention, which are shown by compound No. in Tables 1-12, are shown in Tables 13 and 14.

[13] = tested on: upland rice (Oryza sp., var.Cocodrie, RICE); test: as above; conditions: PRE emergent, 14 days after application, rating scale 0-100
Text: as §2, §3, §4, §5, §6

[14] = tested on: field corn (Zea mays L., var. Dekalb 535, CORN); test: Greenhouse herbicide screen, post-emerge application, crop damage rating; conditions: POST emergent, 14 days after application, scale 0-100
Text: as §2, §3, §4, §5, §6

[15] = tested on: upland rice (Oryza sp., var.Cocodrie, RICE); test: as above; conditions: POST emergent, 14 days after application, scale 0-100
Text: as §2, §3, §4, §5, §6

[16] = tested on: sicklepod (Cassia obtusifolia, CASOB); test: Greenhouse herbicide screen, pre-emerge application, phytotoxicity rating; conditions: PRE emergent, 14 days after application, rating scale 0-100
Summary of the method: as §1

[17] = tested on: cocklebur (Xanthium strumarium, XANST); test: as above; conditions: PRE emergent, 14 days after application, rating scale 0-100
Summary of the method: as §1

[18] = tested on: lambsquarters (Chenopodium album, CHEAL); test: as above; conditions: PRE emergent, 14 days after application, rating scale 0-100
Summary of the method: as §1

[19] = tested on: velvetleaf (Abutilon theophrasti, ABUTH); test: as above; conditions: PRE emergent, 14 days after application, rating scale 0-100
Summary of the method: as §1

[20] = tested on: green foxtail (Setaria viridis, SETVI); test: as above; conditions: PRE emergent, 14 days after application, rating scale 0-100
Summary of the method: as §1

[21] = tested on: barnyardgrass (Echinochloa crus-galli, ECHCG); test: as above; conditions: PRE emergent, 14 days after application, rating scale 0-100
Summary of the method: as §1

[22] = tested on: redroot pigweed (Amaranthus retrofiexus, AMARE); test: as above; conditions: PRE emergent, 14 days after application, rating scale 0-100
Summary of the method: as §1

[23] = tested on: johnsongrass (Sorghum halepense, SORHA); test: as above; conditions: PRE emergent, 14 days after application, rating scale 0-100
Summary of the method: as §1

[24] = tested on: large crabgrass (Digitaria sanguinalis, DIGSA); test: as above; conditions: PRE emergent, 14 days after application, rating scale 0-100
Summary of the method: as §1

[25] = tested on: common ragweed (Ambrosia artemisiifolia L., AMBEL); test: as above; conditions: PRE emergent, 14 days after application, rating scale 0-100
Summary of the method: as §1

[26] = tested on: ivyleaf morningglory (Ipomoea hederacea, IPOHE); test: as above; conditions: PRE emergent, 14 days after application, rating scale 0-100
Summary of the method: as §1

CC1CCCC(C)N1NC(=O)c1cc(-n2c(=O)cc(C(F)(F)F)n(C)c2=O)c(F)cc1Cl (stereo not shown) [Compound 1-16]
45: crop damage rating RICE ([13]; 63 g ai/ha) | crop damage rating RICE ([15]; 63 g ai/ha)
75: phytotoxicity rating XANST ([2]; 63 g ai/ha) | phytotoxicity rating SORHA ([8]; 63 g ai/ha) | phytotoxicity rating XANST ([17]; 63 g ai/ha) | phytotoxicity rating SORHA ([23]; 63 g ai/ha)
30: phytotoxicity rating DIGSA ([9]; 63 g ai/ha) | phytotoxicity rating DIGSA ([24]; 63 g ai/ha)
100: phytotoxicity rating XANST ([2]; 250 g ai/ha) | phytotoxicity rating CHEAL ([3]; 63 g ai/ha) | phytotoxicity rating CHEAL ([3]; 250 g ai/ha) | phytotoxicity rating ABUTH ([4]; 63 g ai/ha) | phytotoxicity rating ABUTH ([4]; 250 g ai/ha) | phytotoxicity rating AMARE ([7]; 63 g ai/ha, scale 0-100 (0 no damage, 100 complete death)) | phytotoxicity rating AMARE ([7]; 250 g ai/ha, scale 0-100) | phytotoxicity rating IPOHE ([11]; 63 g ai/ha) | phytotoxicity rating IPOHE ([11]; 250 g ai/ha) | crop damage rating CORN ([12]; 63 g ai/ha) | crop damage rating CORN ([12]; 250 g ai/ha) | crop damage rating CORN ([14]; 63 g ai/ha) | crop damage rating CORN ([14]; 250 g ai/ha) | phytotoxicity rating XANST ([17]; 250 g ai/ha) | phytotoxicity rating CHEAL ([18]; 63 g ai/ha) | phytotoxicity rating CHEAL ([18]; 250 g ai/ha) | phytotoxicity rating ABUTH ([19]; 63 g ai/ha) | phytotoxicity rating ABUTH ([19]; 250 g ai/ha) | phytotoxicity rating AMARE ([22]; 63 g ai/ha) | phytotoxicity rating AMARE ([22]; 250 g ai/ha) | phytotoxicity rating IPOHE ([26]; 63 g ai/ha) | phytotoxicity rating IPOHE ([26]; 250 g ai/ha)
99: phytotoxicity rating CASOB ([1]; 250 g ai/ha) | phytotoxicity rating SETVI ([5]; 250 g ai/ha) | phytotoxicity rating SORHA ([8]; 250 g ai/ha) | phytotoxicity rating AMBEL ([10]; 63 g ai/ha) | phytotoxicity rating AMBEL ([10]; 250 g ai/ha) | phytotoxicity rating CASOB ([16]; 250 g ai/ha) | phytotoxicity rating SETVI ([20]; 250 g ai/ha) | phytotoxicity rating SORHA ([23]; 250 g ai/ha) | phytotoxicity rating AMBEL ([25]; 63 g ai/ha) | phytotoxicity rating AMBEL ([25]; 250 g ai/ha)
98: phytotoxicity rating CASOB ([1]; 63 g ai/ha) | phytotoxicity rating ECHCO ([6]; 250 g ai/ha) | phytotoxicity rating DIGSA ([9]; 250 g ai/ha) | crop damage rating RICE ([13]; 250 g ai/ha) | crop damage rating RICE ([15]; 250 g ai/ha) | phytotoxicity rating CASOB ([16]; 63 g ai/ha) | phytotoxicity rating ECHCG ([21]; 250 g ai/ha) | phytotoxicity rating DIGSA ([24]; 250 g ai/ha)
90: phytotoxicity rating SETVI ([5]; 63 g ai/ha) | phytotoxicity rating SETVI ([20]; 63 g ai/ha)
35: phytotoxicity rating ECHCO ([6]; 63 g ai/ha) | phytotoxicity rating ECHCG ([21]; 63 g ai/ha)
